In patent US10071992B2, “Diacylglycerol acyl transferase 2 inhibitors” (Pfizer Inc., priority 2016, dated 2018):

Experiments:
human DGAT2 (hDGAT2) = human DGAT2 (hDGAT2) (Homo sapiens (Human), UniProt Q96PD7); experiment: In vitro DGAT2 assay, determination of IC50 values for DGAT2 inhibitors; assay type: biochemical
Protocol: Recombinant baculovirus for the FLAG-tagged hDGAT2 was generated in SF9 insect cells using Bac-to-Bac baculovirus expression system (Invitrogen) according to the manufacturer's protocol. For the expression of hDGAT2, SF9 cells (20 L) grown in Sf90011 media were infected with hDGAT2 baculovirus at a multiplicity of infection of 1 in a Wave Bioreactor System 20/50P wave bag (GE Healthcare). After 40 hours of infection, the cells were then harvested by centrifugation at 5,000×g. The cell pellets were washed by resuspending in phosphate buffered saline (PBS) and collected by centrifugation at 5,000×g. The cell paste was flash frozen in liquid N2 and stored at −80° C. until needed. All operations below were at 4° C. unless otherwise noted. The cells were resuspended in lysis buffer (50 mM Tris-HCl, pH 8.0, 250 mM sucrose) including 1 mM ethylenediaminetetraacetic acid (EDTA) and the complete protease inhibitor cocktail (Roche Diagnostics) at a ratio of 3 ml buffer per 1 g cell paste. The cells were lysed by dounce homogenizer. The cell debris was removed by centrifugation at 1,000×g for 20 min, and the supernatant was centrifuged at 100,000×g for 1 hour. The resulting pellet was rinsed three times by filling ultracentrifuge tubes to the top with ice cold PBS before decanting. The washed pellet was resuspended with gentle stirring for 1 hour in lysis buffer containing 8 mM 3-[(3-cholamidopropyl)dimethylammonio]-1-propanesulfonate (CHAPS) at a ratio of 1 mL buffer per 1 g of original cell paste and centrifuged again at 100,000×g for 1 hour. The resulting supernatant was aliquotted, flash frozen in liquid N2, and stored at −80° C. until use.
To 1 μL of compounds dissolved in 100% DMSO and spotted at the bottom of each well, 5 μL of 0.04% bovine serum albumin (BSA) (fatty acid free, Sigma Aldrich) was added and the mixture was incubated at room temperature for 15 minutes. hDGAT2 membrane fractions were diluted in 100 mM Hepes-NaOH, pH 7.4, 20 mM MgCl2 containing 200 nM methyl arachidonyl fluorophosphonate (Cayman Chemical; dried from ethyl acetate stock solution under argon gas and dissolved in DMSO as 5 mM stock). 10 μL of this enzyme working solution was added to the plates and incubation continued for 2 hours at room temperature. DGAT2 reactions were initiated by the addition of 4 μL of substrates containing 30 μM [1-^14C]decanoyl-CoA (custom-synthesized by Perkin Elmer, 50 mCi/mmol) and 125 μM 1,2-didecanoyl-sn-glycerol (Avanti Polar Lipids) dissolved in 12.5% acetone. The reaction mixtures were incubated at room temperature for 40 min and the reactions were stopped by addition of 5 μL of 1% H3PO4. After the addition of 45 μL MicroScint-E (Perkin-Elmer), plates were sealed with Top Seal-A covers (Perkin-Elmer) and phase partitioning of substrates and products was achieved using a HT-91100 microplate orbital shaker (Big Bear Automation, Santa Clara, Calif.). Plates were centrifuged at 2,000×g for 1 minute in an Allegra 6R Centrifuge (Beckman Coulter) and then were sealed again with fresh covers before reading in a 1450 Microbeta Wallac Trilux Scintillation Counter (Perkin Elmer). DGAT2 activity was measured by quantifying the generated product [^14C]tridecanoylglycerol in the upper organic phase.
Inhibitors were tested at eleven different concentrations to generate IC50 values for each compound.

[1] = Metabolic clearance in HLM (hepatic clearance profile); assay type: in vitro ADME; conditions: human, human liver microsomes, read-out: Clint, app in HLM
DGAT2 = DGAT2 (Homo sapiens (Human), UniProt Q96PD7); experiment: IC50 values for DGAT2 inhibitors in human hepatocytes; assay type: cell-based; conditions: geometric mean, N=10; cryopreserved human hepatocytes, DGAT1 inhibitor at 3 μM present, [1,3-14C]-glycerol incorporation
Sequence of DGAT2 (Q96PD7 whole entry): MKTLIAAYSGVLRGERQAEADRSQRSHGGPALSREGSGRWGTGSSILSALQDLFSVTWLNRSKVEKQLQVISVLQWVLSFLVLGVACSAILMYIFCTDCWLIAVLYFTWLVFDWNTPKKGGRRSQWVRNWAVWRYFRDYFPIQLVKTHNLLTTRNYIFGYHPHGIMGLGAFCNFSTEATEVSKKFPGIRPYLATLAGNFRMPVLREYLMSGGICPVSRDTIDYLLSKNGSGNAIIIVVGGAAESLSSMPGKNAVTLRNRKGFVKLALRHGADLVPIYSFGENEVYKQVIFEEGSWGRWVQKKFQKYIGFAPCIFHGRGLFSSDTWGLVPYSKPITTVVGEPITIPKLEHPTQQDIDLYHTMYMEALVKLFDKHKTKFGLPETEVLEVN
Protocol: After 24 hours overnight recovery period, the cells were overlayed with media containing 250 μg/ml Matrigel (BD Biosciences, San Jose, Calif.). The following day, media was aspirated and replaced with serum-free Williams Media E (Life Technologies, Grand Island, N.Y.) containing 400 μM sodium dodecanoate (Sigma-Aldrich, St. Louis, Mo.). […] After separation, radiolabeled lipids were visualized using a Molecular Dynamics' PhosphorImager system.

[2] = geometric mean, hDGAT2 membrane fraction, [1-14C]decanoyl-CoA and 1,2-didecanoyl-sn-glycerol
[3] = Table 3, comparison with WO2015140658 Example 19.21

Sequence of human DGAT2 (hDGAT2) (Q96PD7 whole entry): as above

IC50 (human DGAT2 (hDGAT2); [2]) [nM] | SMILES | further results
7.4 | CCOc1cccnc1Oc1cncc(-c2ncc(C(=O)NC(C)(C)C#N)cn2)c1 [Example 4, N-(2-cyanopropan-2-yl)-2-(5-((3-ethoxypyridin-2-yl)oxy)pyridin-3-yl)pyrimidine-5-carboxamide] | 
238 | CCOc1nccnc1Oc1cncc(-c2ncc(C(=O)NC(C)(C)CO)cn2)c1 [Example 3.5, 2-(5-((3-ethoxypyrazin-2-yl)oxy)pyridin-3-yl)-N-(1-hydroxy-2-methylpropan-2-yl)pyrimidine-5-carboxamide] | 
14 | CCOc1cccnc1Oc1cncc(-c2ncc(C(=O)NC(C)(C)CO)cn2)c1 [Example 5, 2-(5-((3-Ethoxypyridin-2-yl)oxy)pyridin-3-yl)-N-(1-hydroxy-2-methylpropan-2-yl)pyrimidine-5-carboxamide] | IC50 (human DGAT2 (hDGAT2); [3]): 14 nM; microsomal CLint [1]: 18 µL/min/mg
 | CCOc1cccnc1Oc1cncc(-c2ncc(C(=O)N[C@H]3CCOC3)cn2)c1 [Example 1, (S)-2-(5-((3-ethoxypyridin-2-yl)oxy)pyridin-3-yl)-N-(tetrahydrofuran-3-yl)pyrimidine-5-carboxamide] | IC50 (DGAT2): 2.8 nM
83.6 | CCOc1cccnc1Oc1cncc(-c2ncc(C(=O)NC(C)(CO)CO)cn2)c1 [Example 3.2, N-(1,3-dihydroxy-2-methylpropan-2-yl)-2-(5-((3-ethoxypyridin-2-yl)oxy)pyridin-3-yl)pyrimidine-5-carboxamide] | 
 | CCOc1ccccc1O[C@@H]1CCCN(c2ncc(C(=O)NC(C)(C)CO)cn2)C1 [WO2015140658 Example 19.21, reference compound] | IC50 (human DGAT2 (hDGAT2); [3]): 7.9 nM; microsomal CLint [1]: 121 µL/min/mg
13.5 | CCOc1cccnc1Oc1cncc(-c2ncc(C(=O)NC3(C)CCS(=O)(=O)C3)cn2)c1 (centres unmarked) [Example 3.1, 2-(5-((3-ethoxypyridin-2-yl)oxy)pyridin-3-yl)-N-(3-methyl-1,1-dioxidotetrahydrothiophen-3-yl)pyrimidine-5-carboxamide] | 
83 | CCOc1cccnc1Oc1cncc(-c2ncc(C(=O)NC(C)(C)CO)nn2)c1 [Example 7, 3-{5-[(3-ethoxypyridin-2-yl)oxy]pyridin-3-yl}-N-(1-hydroxy-2-methylpropan-2-yl)-1,2,4-triazine-6-carboxamide] | 
196 | CCOc1cccnc1Oc1cncc(-c2ncc(C(=O)NC3CCS(=O)(=O)C3)cn2)c1 (centres unmarked) [Example 3.3, N-(1,1-dioxidotetrahydrothiophen-3-yl)-2-(5-((3-ethoxypyridin-2-yl)oxy)pyridin-3-yl)pyrimidine-5-carboxamide] | 
35.4 | CCOc1cccnc1Oc1cncc(-c2ncc(C(=O)NC(C)(C)CS(C)(=O)=O)cn2)c1 [Example 3.6, 2-(5-((3-ethoxypyridin-2-yl)oxy)pyridin-3-yl)-N-(2-methyl-1-(methylsulfonyl)propan-2-yl)pyrimidine-5-carboxamide] | 
3.7 | CCOc1cc(F)cnc1Oc1cncc(-c2ncc(C(=O)N[C@H]3CCOC3)cn2)c1 [Example 8, (S)-2-(5-((3-Ethoxy-5-fluoropyridin-2-yl)oxy)pyridin-3-yl)-N-(tetrahydrofuran-3-yl)pyrimidine-5-carboxamide] | 

SMILES | IC50 (human DGAT2 (hDGAT2); [2]) [nM] | further results
CCOc1cccnc1Oc1cncc(-c2ncc(C(=O)N[C@@H]3CCOC3)cn2)c1 [Example 2, (R)-2-(5-((3-Ethoxypyridin-2-yl)oxy)pyridin-3-yl)-N-(tetrahydrofuran-3-yl)pyrimidine-5-carboxamide] | 200 | 
O=C(N[C@H]1CCOC1)c1cnc(-c2cncc(Oc3ncccc3OCCF)c2)nc1 [Example 3.7, (S)-2-(5-((3-(2-fluoroethoxy)pyridin-2-yl)oxy)pyridin-3-yl)-N-(tetrahydrofuran-3-yl)pyrimidine-5-carboxamide] | 66.5 | 
CCOc1cccnc1Oc1cncc(-c2ncc(C(=O)N[C@H]3CCOC3)nn2)c1 [Example 3.4, (S)-3-(5-((3-ethoxypyridin-2-yl)oxy)pyridin-3-yl)-N-(tetrahydrofuran-3-yl)-1,2,4-triazine-6-carboxamide] | 181 | 
